Source: patent publication US9783488B2 (CHDI Foundation, Inc., priority 2013, dated 2017)

Target: human catalytic domain HDAC4 protein (amino acids 648-1032) (Homo sapiens (Human), UniProt P56524)
Assay: Inhibition of HDAC4 catalytic domain enzymatic activity, fluorogenic substrate Boc-Lys(Tfa)-AMC
Settings: HDAC4 catalytic domain enzyme, read-out: Biochemical HDAC4 IC50
From the text: Analysis of Inhibition of HDAC4 with Class IIa Histone Deacetylase (HDAC) Inhibitors
The potency of Class IIa Histone Deacetylase (HDAC) inhibitors is quantified by measuring the Histone Deacetylase 4 (HDAC4) catalytic domain enzymatic activity using the fluorogenic substrate, Boc-Lys(Tfa)-AMC. The substrate is deacetylated to Boc-Lys-AMC by HDAC4. Cleavage by trypsin results in the release of the fluorophore AMC from the deacetylated substrate. The fluorescence of the sample is directly related to the histone deacetylase activity in the sample.
Serially dilute HDAC inhibitor compounds. […] Stocks of 6 μl aliquots of the 10 mM compound in DMSO are prepared and stored at […]. From one stock aliquot of each compound to be tested and the reference compound, a 16-point serial dilution is prepared according to Table 1 using a 125 μl 16-channel Matrix multi-channel pipette (Matrix Technologies Ltd).
2 μl (200×) of each diluted solution and each control (full activity: 100% DMSO alone or full inhibition 1 mM) is stamped into V-bottomed polypropylene 384-well compound plates using either the Bravo (384-well head from Agilent) or 12.5 μl 16-channel Matrix multi-channel pipette (Matrix Technologies Ltd).
Prepare HDAC4 catalytic domain enzyme (0.2 μg/mL).
Prepare 5× ([…]) Boc-Lys(Tfa)-AMC Substrate. 5× (50 μM) substrate is prepared just prior to the addition to the assay. A 1 mM substrate stock is made by diluting a 100 mM Boc-Lys(Tfa)-AMC in DMSO solution 1:100 by adding it drop-wise to assay buffer (equilibrated to r.t.) while vortexing at slow speed to prevent precipitation. The 5× substrate is prepared by diluting the 1 mM substrate solution 1:20 by adding it drop-wise to assay buffer (equilibrated to r.t.) while vortexing at slow speed to prevent precipitation.
Prepare 3× (30 μM) Developer/Stop Solution.
Assay. 5 μl of each solution of 1:20 diluted compound from above is transferred to a clear bottomed, black, 384-well assay plate using the Bravo or the Janus (384-well MDT head from Perkin Elmer). Using a 16-channel Matrix multi-channel pipette, 35 μl of the working solution of HDAC4 catalytic domain enzyme (0.2 μg/mL in assay buffer) is transferred to the assay plate. […] The assay plate is then shaken for two minutes on an orbital shaker at 900 rpm (rotations per minute). Next the plate is incubated for 15 minutes at 37° C. The reaction is stopped by adding 25 μl of 3× (3 μM) developer/stop solution to the assay plates using either the Bravo, Janus or a 16-channel Matrix multi-channel pipette. Assay plates are then shaken for 5 minutes on an orbital shaker at 1200 rpm. Next, the assay plates are incubated at 37° C. for 1 hour in a tissue culture incubator.

Chain of human catalytic domain HDAC4 protein (amino acids 648-1032) (P56524 648-1032): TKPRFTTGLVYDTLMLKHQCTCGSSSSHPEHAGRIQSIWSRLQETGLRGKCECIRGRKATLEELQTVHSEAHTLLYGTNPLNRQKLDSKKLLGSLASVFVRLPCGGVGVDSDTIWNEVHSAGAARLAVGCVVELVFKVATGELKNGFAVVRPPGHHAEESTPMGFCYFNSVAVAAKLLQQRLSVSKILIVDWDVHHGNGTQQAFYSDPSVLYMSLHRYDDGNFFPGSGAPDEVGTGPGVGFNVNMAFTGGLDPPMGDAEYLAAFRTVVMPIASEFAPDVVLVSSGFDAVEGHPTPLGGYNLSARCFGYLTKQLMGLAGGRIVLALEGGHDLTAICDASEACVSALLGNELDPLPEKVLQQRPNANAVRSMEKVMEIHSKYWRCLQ

Structure (SMILES) | IC50 [nM]
Cc1c(F)cccc1[C@]1(C(=O)NO)CC[C@H](c2ccc3cnn(C)c3c2F)C1 (relative stereo) [Example 82, (1S,3S*)-3-(7-Fluoro-1-methyl-1H-indazol-6-yl)-1-(3-fluoro-2-methylphenyl)-N-hydroxycyclopentanecarboxamide] | 110
Cc1c(F)cccc1[C@]1(C(=O)NO)CC[C@H](c2ccc3c(cnn3C)c2)C1 (relative stereo) [Example 64, (1S,3S*)-1-(3-fluoro-2-methylphenyl)-N-hydroxy-3-(1-methyl-1H-indazol-5-yl)cyclopentanecarboxamide] | 100
Cc1cccc(F)c1C1(C(=O)NO)CCCC1 [Example 37, 1-(2-Fluoro-6-methylphenyl)-N-hydroxycyclopentanecarboxamide] | 1500

Test system: cellular histone deacetylase enzymatic activity in Jurkat E6-1 cells
Assay: Inhibition of cellular HDAC activity in Jurkat E6-1 cells, fluorogenic substrate Boc-Lys(Tfa)-AMC
Assay type: cell-based
Settings: Homo sapiens, read-out: Cell IC50
From the text: Analysis of Inhibition of Cellular HDAC Activity with Class IIa Histone Deacetylase (HDAC) Inhibitors
The potency of Class IIa Histone Deacetylase (HDAC) inhibitors is quantified by measuring the cellular histone deacetylase enzymatic activity using the fluorogenic substrate, Boc-Lys(Tfa)-AMC. After penetration in Jurkat E6-1 cells, the substrate is deacetylated to Boc-Lys-AMC. After cell lysis and cleavage by trypsin, the fluorophore AMC is released from the deacetylated substrate only. The fluorescence of the sample is directly related to the histone deacetylase activity in the sample.
Jurkat E6.1 cell culture and plating. Jurkat E6.1 cells are cultured according to standard cell culture protocols in Jurkat E6.1 Growth Media (RPMI without phenol red, 10% FBS, 1 mM HEPES, and 1 mM Sodium Pyruvate). Jurkat E6.1 cells are counted using a Coulter Counter and resuspended in Jurkat E6.1 growth media at a concentration of 75,000 cells/35 μl. 35 μl or 75,000 cells is seeded into Greiner microtitre assay plates. The plates are then incubated at 37° C. and 5% CO2 while other assay components are being prepared.
Serially dilute HDAC inhibitor compounds. Serial dilutions of the HDAC inhibitors and control reference compound (1-(5-(3-((4-(1,3,4-oxadiazol-2-yl)phenoxy)methyl)-1,2,4-oxadiazol-5-yl)thiophen-2-yl)-2,2,2-trifluoroethanone) are made by first resuspending the lyophilized compound to a final concentration of 10 mM in […]. Stocks of 70 μl aliquots of the 10 mM compound in DMSO are prepared and stored at −20° C. From one stock aliquot of each compound to be tested and the reference compound, a 16-point serial dilution is prepared according to Table 1 using a 125 μl 16-channel Matrix multi-channel pipette.
2 μl (200×) of each diluted solution and each control (full activity: 100% DMSO alone or full inhibition 1 mM) is stamped into V-bottom polypropylene 384-well compound plates using either the Bravo, Janus, or 12.5 μl 16-channel Matrix multi-channel pipette. Each well with the 200× compound solution is diluted 1:20 by the addition of 38 μl Jurkat assay buffer+DMSO (9.5% DMSO, RPMI without phenol red, 0.09% FBS, 9 mM Hepes, and 0.9 mM Sodium Pyruvate equilibrated to r.t.)
Prepare 5× (500 μM) Boc-Lys(Tfa)-AMC substrate. 5× (500 μM) substrate is prepared just prior to the addition to the assay. The 5× substrate is prepared by diluting a 100 mM Boc-Lys(Tfa)-AMC in DMSO solution 1:200 by adding it drop-wise to Jurkat assay medium (RPMI without phenol red, 0.1% FBS, 10 mM Hepes, and 1 mM Sodium Pyruvate equilibrated to 37° C.) while vortexing at slow speed to prevent precipitation.
Prepare 3× Lysis Buffer. 10 mL of 3× lysis buffer is prepared with 8.8 mL of 3× stock lysis buffer (50 mM Tris-HCl, pH 8.0, 137 mM NaCl, 2.7 mM KCl, 1 mM MgCl2, 1% Nonidet P40 Substitute equilibrated to r.t.) and 1.2 mL of 3 mg/mL Trypsin equilibrated to r.t.
Assay. 5 μl of each solution of 1:20 diluted compound from above is transferred to the Greiner microtitre assay plates with 75,000 cells/well using the Bravo. Cells are then incubated for 2 hours at 37° C. and 5% CO2. The assay is then started by adding 10 μl of 5× (500 μM) substrate to the assay plate using either the Bravo or 16-channel Matrix multi-channel pipette. The cells are then incubated for 3 hours at 37° C. and 5% CO2. Next, 25 μl of 3× lysis buffer is added to each well using either the 125 μl 16 channel pipette or the Bravo. The assay plate is then incubated overnight (15-16 hours) at 37° C. and 5% CO2. The following day, the plates are shaken on an orbital shaker for 1 minute at 900 rpm. Finally the top read fluorescence (Excitation: 355 nm, Emission: 460 nm) is measured using PerkinElmer EnVision.

Structure (SMILES) | IC50 [nM]
Cc1c(F)cccc1[C@]1(C(=O)NO)CC[C@H](c2ccc3cnn(C)c3c2F)C1 (relative stereo) [Example 82, (1S,3S*)-3-(7-Fluoro-1-methyl-1H-indazol-6-yl)-1-(3-fluoro-2-methylphenyl)-N-hydroxycyclopentanecarboxamide] | 250
Cc1c(F)cccc1[C@]1(C(=O)NO)CC[C@H](c2ccc3c(cnn3C)c2)C1 (relative stereo) [Example 64, (1S,3S*)-1-(3-fluoro-2-methylphenyl)-N-hydroxy-3-(1-methyl-1H-indazol-5-yl)cyclopentanecarboxamide] | 220
Cc1cccc(F)c1C1(C(=O)NO)CCCC1 [Example 37, 1-(2-Fluoro-6-methylphenyl)-N-hydroxycyclopentanecarboxamide] | 12000
Cc1c([C@]2(C(=O)NO)CC[C@@H](c3ccc4cnn(C)c4c3)C2)ccc(F)c1F (relative stereo) [Example 86, (1S,3R*)-1-(3,4-difluoro-2-methylphenyl)-N-hydroxy-3-(1-methyl-1H-indazol-6-yl)cyclopentanecarboxamide] | 160
Cc1c(F)cccc1[C@]1(C(=O)NO)CC[C@@H](c2ccc3sc(C4CC4)nc3c2)C1 (relative stereo) [Example 80, (1 S,3R*)-3-(2-Cyclopropylbenzo[c]thiazol-5-yl)-1-(3-fluoro-2-methylphenyl)-N-hydroxycyclopentanecarboxamide] | 380
CCN(CC)CCn1cc([C@@H]2CC[C@@](C(=O)NO)(c3cccc(F)c3C)C2)cn1 (relative stereo) [Example 51, (1S,3R*)-3-(1-(2-(diethylamino)ethyl)-1H-pyrazol-4-yl)-1-(3-fluoro-2-methylphenyl)-N-hydroxycyclopentanecarboxamide] | 290
Cc1c(F)cccc1[C@]1(C(=O)NO)CC[C@@H](c2ccc3c(c2)CN(C2CC2)C3=O)C1 (relative stereo) [Example 59, (1S,3R*)-3-(2-cyclopropyl-1-oxoisoindolin-5-yl)-1-(3-fluoro-2-methylphenyl)-N-hydroxycyclopentanecarboxamide] | 190
Cc1c(F)cccc1[C@]1(C(=O)NO)CC[C@H](N2CCCC2)C1 (relative stereo) [Example 88, (1 S,3S*)-1-(3-fluoro-2-methylphenyl)-N-hydroxy-3-(pyrrolidin-1-yl)cyclopentanecarboxamide] | > 50000
Cc1c(F)cccc1[C@@]1(C(=O)NO)CC[C@@H](c2ccccc2)C1 (stereo in doubt) [Example 7, (1R*,3R*)-1-(3-fluoro-2-methylphenyl)-N-hydroxy-3-phenylcyclopentanecarboxamide] | 1120
CCCN(CCC)C[C@@H](C)NC(=O)c1ccc([C@@H]2CC[C@@](C(=O)NO)(c3cccc(F)c3C)C2)cc1 (relative stereo) [Example 52, N—((R)-1-(dipropylamino)propan-2-yl)-4-((1R*,3S)-3-(3-fluoro-2-methylphenyl)-3-(hydroxycarbamoyl)cyclopentyl)benzamide] | 180
Cc1c(F)cccc1[C@]1(C(=O)NO)CC[C@H](c2ccc3sc(C4CC4)nc3c2)C1 (relative stereo) [Example 79, (1S,3S*)-3-(2-Cyclopropylbenzo[d]thiazol-5-yl)-1-(3-fluoro-2-methylphenyl)-N-hydroxycyclopentanecarboxamide] | 380
Cc1c(F)cccc1[C@]1(C(=O)NO)CC[C@H](c2ccccc2)C1 (stereo in doubt) [Example 6, (1S*,3S*)-1-(3-fluoro-2-methylphenyl)-N-hydroxy-3-phenylcyclopentanecarboxamide] | 610
Cc1c(F)cccc1[C@]1(C(=O)NO)CC[C@@H](N2CCCC2)C1 (relative stereo) [Example 87, (1 S,3R*)-1-(3-fluoro-2-methylphenyl)-N-hydroxy-3-(pyrrolidin-1-yl)cyclopentanecarboxamide] | > 50000
Cc1c(F)cccc1[C@]1(C(=O)NO)CC[C@@H](c2cnn(CCN3CCOCC3)c2)C1 (relative stereo) [Example 47, (1S,3R*)-1-(3-fluoro-2-methylphenyl)-N-hydroxy-3-(1-(2-morpholinoethyl)-1H-pyrazol-4-yl)cyclopentanecarboxamide] | 830
CCCN(CCC)C[C@@H](C)NC(=O)c1ccc([C@H]2CC[C@@](C(=O)NO)(c3cccc(F)c3C)C2)cc1 (relative stereo) [Example 53, N—((R)-1-(dipropylamino)propan-2-yl)-4-((1S*,3S)-3-(3-fluoro-2-methylphenyl)-3-(hydroxycarbamoyl)cyclopentyl)benzamide] | 150
Cc1c(F)cccc1[C@@]1(C(=O)NO)CC[C@H](c2ccccc2)C1 (stereo in doubt) [Example 4, (1R*,3S*)-1-(3-fluoro-2-methylphenyl)-N-hydroxy-3-phenylcyclopentanecarboxamide] | 440
Cc1c(F)cccc1[C@]1(C(=O)NO)CC[C@@H](c2ccccc2)C1 (stereo in doubt) [Example 5, (1S*,3R*)-1-(3-fluoro-2-methylphenyl)-N-hydroxy-3-phenylcyclopentanecarboxamide] | 7850
Cc1ccccc1[C@H]1CC[C@@](C(=O)NO)(c2cccc(F)c2C)C1 (relative stereo) [Example 8, (±)-(1S*,3S*)1-(3-fluoro-2-methylphenyl)-N-hydroxy-3-(o-tolyl)cyclopentane carboxamide] | 480
